Assay results: patent US20150152083A1, “Compounds and Compositions for Modulating EGFR Activity” (IRM LLC, A Delaware Limited Liability Company, priority 2012, published 2015)
One block for each compound: values may come before it.

Experiments:
EGFR (L858R) = biological target: T1, EGFR (L858R) (Homo sapiens, UniProt P00533, L858R); assay: EGFR target modulation in engineered NIH3T3 cell lines (phospho-EGFR AlphaLISA); format: cell-based; conditions: NIH3T3 cells expressing human EGFR L858R; 3 hours compound
T1 construct: host or cells: NIH3T3
Experimental: (§1) EGFR Target Modulation in Engineered NIH3T3 Cell Lines
(§2) NIH3T3 cell lines expressing human EGFR (WT, L858R, and L858RT790M) (obtained from Matthew Meyerson's Lab at DFCI) were maintained in 10% FBS/DMEM supplemented with 100 μg/ml Penicillin/Streptomycin (Hyclone #SV30010) and 2 μg/ml Puromycin. The cells were harvested with 0.05% Trypsin/EDTA (Hyclone #SH30236.01), re-suspended in 5% FBS/DMEM Pen/Strep without Puromycin and plated at 9,000 cells per well in 50 μl of media in a 384-well black plate with clear bottoms (Greiner #789068G). The cells were allowed to incubate overnight in a 37° C., 5% CO2 humidified tissue culture incubator. A 12-point test compound curve was prepared by serial diluting a 10 μM stock 1:3 in DMSO in a 384-well compound plate (Greiner #789201L). The serial diluted compounds were transferred to the plate containing cells by using a 50 nl Pin Head device (Perkin Elmer) and the cells were placed back in the incubator for 3 hours. Only the EGFR WT-expressing cells were induced with 50 ng/ml EGF (Preprotech #AF-100-15) for 5 minutes before lysis. The media was removed and cells were lysed in 25 μl of Lysis buffer containing protease and phosphatase inhibitors (1% Triton X-100, 20 mM Tris, pH 7.5, 1 mM EDTA, 1 mM EGTA, 150 mM NaCl, 1× complete cocktail inhibitor (Roche #11 697 498 001), 1× Phosphatase Inhibitor Cocktail Set II and Set III (Sigma #P5726 and #P0044)). The plates were shaken at 4° C. for 5 minutes with foil top at maximum speed. An aliquot of 5 μl from each well was transferred to ProxiPlate™ 384-well Plus plates (PE #6008289). The plates were sealed with a foil top and frozen at −80° C. and thawed when needed.
(§3) The frozen aliquots were thawed and briefly centrifuged. All antibodies and beads were diluted in 1× AlphaLISA HiBlock Buffer (PE #AL004C). Biotinylated anti-phospho-EGFR (Y1068) (Cell Signaling #4031) was incubated with the lysate for 1 hour at room temperature at 1 nM final concentration. Goat anti-total EGFR (R&D Systems #AF231) was added and allowed to equilibrate for 1 hour at room temperature at 1 nM final concentration. Then, 10 μl of mixed beads (AlphaScreen Streptavidin Donor Beads (PE #6760002S) and AlphaLISA anti-goat IgG Acceptor Beads (PE #AL107C)) was equilibrated for 1.5 hours before reading on EnVision plate reader using the built-in settings for AlphaScreen.
(§4) Cells untreated (L858R and L858RT790M) or EGF-induced (WT) were set to 100% maximum response. For a negative control, 10 μM HKI-272 was used to normalize data to 0% of maximum response. With these parameters, the IC50's for each compound in each cell line was calculated using non-linear curve fitting analysis.

EGFR (WT) = biological target: T2, EGFR (WT) (Homo sapiens, UniProt P00533); assay: as above; format: cell-based; conditions: NIH3T3 cells expressing human EGFR WT; 3 hours compound; induced with 50 ng/ml EGF
T2 construct: host or cells: NIH3T3
Experimental: as §1, §2, §3, §4

EGFR(L858R/T790M) [1] = biological target: T3, EGFR(L858R/T790M) (Homo sapiens, UniProt P00533, L858R/T790M); assay: as above; format: cell-based; design: host or cells: NIH3T3; conditions: NIH3T3 cells expressing human EGFR L858R/T790M; 3 hours compound
Experimental: as §1, §2, §3, §4
Target sequence in this assay (P00533 25-1210 T790M/L858R): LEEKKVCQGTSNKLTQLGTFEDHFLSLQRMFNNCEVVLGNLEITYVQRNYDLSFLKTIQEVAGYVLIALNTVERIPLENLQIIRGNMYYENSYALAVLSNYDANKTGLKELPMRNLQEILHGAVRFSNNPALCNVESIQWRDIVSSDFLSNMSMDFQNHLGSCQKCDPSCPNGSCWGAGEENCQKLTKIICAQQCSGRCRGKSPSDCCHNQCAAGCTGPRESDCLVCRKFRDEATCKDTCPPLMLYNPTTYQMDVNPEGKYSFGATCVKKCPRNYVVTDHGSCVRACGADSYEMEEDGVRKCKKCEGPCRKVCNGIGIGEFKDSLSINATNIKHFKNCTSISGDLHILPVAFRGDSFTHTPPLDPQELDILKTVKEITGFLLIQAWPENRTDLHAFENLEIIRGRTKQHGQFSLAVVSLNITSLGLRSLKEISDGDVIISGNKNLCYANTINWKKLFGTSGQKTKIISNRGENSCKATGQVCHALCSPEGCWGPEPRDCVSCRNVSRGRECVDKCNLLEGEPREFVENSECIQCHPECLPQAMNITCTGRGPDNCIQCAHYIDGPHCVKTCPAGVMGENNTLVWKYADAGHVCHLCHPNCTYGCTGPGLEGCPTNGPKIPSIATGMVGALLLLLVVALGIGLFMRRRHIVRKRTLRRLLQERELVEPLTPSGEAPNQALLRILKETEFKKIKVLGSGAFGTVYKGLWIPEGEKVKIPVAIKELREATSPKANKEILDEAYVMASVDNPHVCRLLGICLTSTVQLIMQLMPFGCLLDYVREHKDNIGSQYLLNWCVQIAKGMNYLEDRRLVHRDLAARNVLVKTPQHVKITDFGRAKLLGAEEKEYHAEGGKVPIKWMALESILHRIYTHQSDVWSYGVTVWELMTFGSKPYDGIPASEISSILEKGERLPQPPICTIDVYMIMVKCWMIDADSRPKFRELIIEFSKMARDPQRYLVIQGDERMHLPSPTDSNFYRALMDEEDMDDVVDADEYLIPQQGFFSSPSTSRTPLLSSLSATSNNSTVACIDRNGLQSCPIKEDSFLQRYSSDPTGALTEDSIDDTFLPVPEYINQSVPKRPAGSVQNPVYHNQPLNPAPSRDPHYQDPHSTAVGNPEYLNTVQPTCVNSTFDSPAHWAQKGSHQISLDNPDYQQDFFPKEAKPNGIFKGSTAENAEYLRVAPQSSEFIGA

EGFR(L858R/T790M) [2] = biological target: T3, EGFR(L858R/T790M); assay: EGFR biochemical assay (HTRF), IC50 determination; design: purchased from Carna (GST-a.a. 669-1210); purchased Carna; conditions: 10 μM ATP
Experimental: All EGFR biochemical assays were carried out by HTRF method. The EGFR(L858RT790M) enzyme were purchased from Carna (GST-a.a. 669-1210). The substrate peptide Biotin-TK-peptide was purchased from Cis-Bio. The reaction mixtures contained 1 μM peptide substrate, 10 μM ATP, and 0.036 nM EGFR(L858RT790M) in the reaction buffer (50 mM HEPES pH 7.1, 10 mM MgCl2, 0.01% BSA, 1 mM TCEP and 0.1 mM Na3VO4) at a final volume of 10 μL. All reactions were carried out at room temperature in white ProxiPlate™ 384-well Plus plates (PerkinElmer) and were quenched with 5 μL of 0.2 M EDTA at 60 min Five μL of the detection reagents (2.5 ng PT66K and 0.05 μg SAXL per well) were added, the plates were incubated at room temperature for 1 h and then read in EnVision reader. […] For no-preincubation condition, the compounds were added to the assay solution containing ATP and peptide, and the reaction was initiated by addition of enzyme. For pre-incubation conditions, the compounds were added to the assay solution containing enzyme and peptide, and pre-incubated at room temperature for desired period of time, then the reaction was initiated by addition of ATP.
Target sequence in this assay (P00533 669-1210 T790M/L858R): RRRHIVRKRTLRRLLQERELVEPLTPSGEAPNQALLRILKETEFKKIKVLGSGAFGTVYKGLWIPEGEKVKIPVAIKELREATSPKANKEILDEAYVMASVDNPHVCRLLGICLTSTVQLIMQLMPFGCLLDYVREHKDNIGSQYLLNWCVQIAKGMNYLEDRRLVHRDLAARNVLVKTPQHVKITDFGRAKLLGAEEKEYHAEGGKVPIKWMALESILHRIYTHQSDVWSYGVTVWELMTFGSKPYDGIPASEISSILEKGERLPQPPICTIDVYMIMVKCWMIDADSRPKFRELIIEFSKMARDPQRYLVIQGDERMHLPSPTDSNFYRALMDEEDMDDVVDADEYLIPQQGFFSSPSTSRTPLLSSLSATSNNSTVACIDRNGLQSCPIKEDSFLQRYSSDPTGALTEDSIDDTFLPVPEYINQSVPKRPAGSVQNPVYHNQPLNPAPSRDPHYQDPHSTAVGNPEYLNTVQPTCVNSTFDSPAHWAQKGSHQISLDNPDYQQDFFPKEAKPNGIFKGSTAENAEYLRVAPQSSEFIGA

[3] = EGFR (L858R/T790M) IC50 (μM) 90 min pre-incubation, 90 min pre-incubation
[4] = no pre-incubation, read-out: EGFR (L858R/T790M) IC50 (μM) No pre-incubation

T1 sequence (P00533 25-1210 L858R): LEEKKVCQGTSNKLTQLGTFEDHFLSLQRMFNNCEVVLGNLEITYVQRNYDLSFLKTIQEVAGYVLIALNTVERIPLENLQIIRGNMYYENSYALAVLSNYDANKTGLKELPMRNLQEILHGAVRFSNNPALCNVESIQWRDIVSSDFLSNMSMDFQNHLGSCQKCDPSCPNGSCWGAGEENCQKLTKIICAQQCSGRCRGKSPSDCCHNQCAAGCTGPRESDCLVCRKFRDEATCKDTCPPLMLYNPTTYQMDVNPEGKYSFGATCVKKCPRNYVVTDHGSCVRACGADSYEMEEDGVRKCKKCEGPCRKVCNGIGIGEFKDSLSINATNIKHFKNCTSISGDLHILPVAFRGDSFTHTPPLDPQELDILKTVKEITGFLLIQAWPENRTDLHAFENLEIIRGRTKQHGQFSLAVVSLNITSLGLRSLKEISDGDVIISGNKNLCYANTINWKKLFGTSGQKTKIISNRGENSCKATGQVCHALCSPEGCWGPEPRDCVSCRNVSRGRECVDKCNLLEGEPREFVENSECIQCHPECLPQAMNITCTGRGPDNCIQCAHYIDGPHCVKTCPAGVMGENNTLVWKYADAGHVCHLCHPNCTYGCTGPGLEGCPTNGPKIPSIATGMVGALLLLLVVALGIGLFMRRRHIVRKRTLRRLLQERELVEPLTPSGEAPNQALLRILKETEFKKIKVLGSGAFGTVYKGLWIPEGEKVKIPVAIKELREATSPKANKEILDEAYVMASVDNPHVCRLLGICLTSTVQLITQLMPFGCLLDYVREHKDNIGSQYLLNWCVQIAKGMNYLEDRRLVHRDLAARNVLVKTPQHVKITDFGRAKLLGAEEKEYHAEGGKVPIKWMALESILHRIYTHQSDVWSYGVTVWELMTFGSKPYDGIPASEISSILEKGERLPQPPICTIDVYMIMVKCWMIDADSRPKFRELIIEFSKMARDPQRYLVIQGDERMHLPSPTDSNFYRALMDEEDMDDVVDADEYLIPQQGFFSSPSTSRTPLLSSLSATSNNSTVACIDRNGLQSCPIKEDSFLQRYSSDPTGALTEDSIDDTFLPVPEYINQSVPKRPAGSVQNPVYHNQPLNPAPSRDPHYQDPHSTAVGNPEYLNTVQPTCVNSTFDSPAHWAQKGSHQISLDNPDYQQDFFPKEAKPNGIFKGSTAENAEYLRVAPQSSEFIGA
T2 sequence (P00533 25-1210): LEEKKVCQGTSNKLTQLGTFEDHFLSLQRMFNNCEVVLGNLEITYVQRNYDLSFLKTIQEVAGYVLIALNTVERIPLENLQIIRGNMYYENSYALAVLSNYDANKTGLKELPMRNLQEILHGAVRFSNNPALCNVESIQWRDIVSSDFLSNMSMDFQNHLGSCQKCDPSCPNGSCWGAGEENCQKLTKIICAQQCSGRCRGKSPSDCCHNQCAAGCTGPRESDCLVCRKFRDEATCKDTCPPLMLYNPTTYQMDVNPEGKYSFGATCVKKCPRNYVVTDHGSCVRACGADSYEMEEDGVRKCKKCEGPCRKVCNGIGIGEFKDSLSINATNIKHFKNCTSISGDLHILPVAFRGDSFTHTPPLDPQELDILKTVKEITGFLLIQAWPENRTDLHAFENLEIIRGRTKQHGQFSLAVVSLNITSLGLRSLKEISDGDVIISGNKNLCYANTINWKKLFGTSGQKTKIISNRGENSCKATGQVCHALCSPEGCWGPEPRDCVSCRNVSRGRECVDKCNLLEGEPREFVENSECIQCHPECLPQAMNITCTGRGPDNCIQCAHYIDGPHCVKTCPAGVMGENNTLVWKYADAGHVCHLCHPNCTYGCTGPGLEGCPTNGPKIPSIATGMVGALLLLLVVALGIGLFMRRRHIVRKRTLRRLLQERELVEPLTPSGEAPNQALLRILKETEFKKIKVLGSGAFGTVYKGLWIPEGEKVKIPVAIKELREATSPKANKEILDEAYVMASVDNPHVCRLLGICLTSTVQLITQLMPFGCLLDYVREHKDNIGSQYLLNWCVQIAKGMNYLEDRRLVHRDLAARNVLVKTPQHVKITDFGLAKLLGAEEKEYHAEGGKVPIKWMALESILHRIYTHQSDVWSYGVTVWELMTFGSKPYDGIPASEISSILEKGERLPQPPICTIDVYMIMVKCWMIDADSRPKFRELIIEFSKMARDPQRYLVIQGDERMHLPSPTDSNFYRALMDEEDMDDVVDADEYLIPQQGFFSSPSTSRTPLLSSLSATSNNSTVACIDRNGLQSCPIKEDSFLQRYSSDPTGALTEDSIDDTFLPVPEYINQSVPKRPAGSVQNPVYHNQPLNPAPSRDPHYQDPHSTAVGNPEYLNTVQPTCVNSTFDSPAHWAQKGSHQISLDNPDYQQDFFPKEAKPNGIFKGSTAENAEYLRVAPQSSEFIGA

Compound: C=CC(=O)Nc1cccc(-n2c(NC(=O)c3cccc(-c4ccccc4)c3)nc3cc(C)ccc32)c1 [Example 2-7, N-{5-methyl-1-[3-(prop-2-enamido)phenyl]-1H-1,3-benzodiazol-2-yl}-3-phenylbenzamide]
IC50 (EGFR (L858R)): 0.023 µM
IC50 (EGFR (WT)): > 10 µM
IC50 (EGFR(L858R/T790M) [1]): 0.007 µM
IC50 (EGFR(L858R/T790M) [2]; [3]): < 0.001 µM
IC50 (EGFR(L858R/T790M) [2]; [4]): 0.006 µM

Compound: C/C=C/C(=O)Nc1cccc(-n2c(NC(=O)c3cccc(C(F)(F)F)c3)nc3cc(C)ccc32)c1 [Example 2-14, N-{1-[3-(but-2-enamido)phenyl]-5-methyl-1H-1,3-benzodiazol-2-yl}-3-(trifluoromethyl)benzamide]
IC50 (EGFR(L858R/T790M) [2]; [3]): 0.101 µM
IC50 (EGFR(L858R/T790M) [2]; [4]): 0.36 µM

Compound: C=CC(=O)Nc1ccc(-n2c(NC(=O)c3cccc(C(F)(F)F)c3)nc3cc(C)ccc32)cc1 [Example 2-11, N-{5-methyl-1-[4-(prop-2-enamido)phenyl]-1H-1,3-benzodiazol-2-yl}-3-(trifluoromethyl)benzamide]
IC50 (EGFR(L858R/T790M) [2]; [3]): 0.15 µM
IC50 (EGFR(L858R/T790M) [2]; [4]): 1.04 µM

Compound: C=CC(=O)Nc1cccc(-n2c(NC(=O)c3ccc(C)cc3)nc3cc(C)ccc32)c1 [Example 2-3, 4-methyl-N-{5-methyl-1-[3-(prop-2-enamido)phenyl]-1H-1,3-benzodiazol-2-yl}benzamide]
IC50 (EGFR (L858R)): 0.77 µM
IC50 (EGFR (WT)): > 10 µM
IC50 (EGFR(L858R/T790M) [1]): 0.98 µM
IC50 (EGFR(L858R/T790M) [2]; [3]): 0.034 µM
IC50 (EGFR(L858R/T790M) [2]; [4]): 0.39 µM

Compound: C=CC(=O)N[C@@H]1CCC[C@H](n2c(NC(=O)c3cccc(C(F)(F)F)c3)nc3cc(C)ccc32)C1 (single isomer, unassigned) [Example 9-2B]
IC50 (EGFR (L858R)): > 10 µM
IC50 (EGFR (WT)): > 10 µM
IC50 (EGFR(L858R/T790M) [1]): 0.4 µM

Compound: C=CC(=O)Nc1cc(-n2c(NC(=O)c3ccnc(C)c3)nc3cccc(Cl)c32)ccc1C [Example 2-17, N-(1-(3-acrylamido-4-methylphenyl)-7-chloro-1H-benzo[d]imidazol-2-yl)-2-methylisonicotinamide]
IC50 (EGFR(L858R/T790M) [2]; [3]): 0.006 µM
IC50 (EGFR(L858R/T790M) [2]; [4]): 0.065 µM

Compound: C=CC(=O)Nc1cc(C)cc(-n2c(NC(=O)c3ccnc(C)c3)nc3cccc(Cl)c32)c1 [Example 2-18, N-(1-(3-acrylamido-5-methylphenyl)-7-chloro-1H-benzo[d]imidazol-2-yl)-2-methylisonicotinamide]
IC50 (EGFR(L858R/T790M) [2]; [3]): 0.046 µM
IC50 (EGFR(L858R/T790M) [2]; [4]): 0.627 µM

Compound: C=CC(=O)N[C@H]1CCC[C@@H](n2c(NC(=O)c3cccc(C(F)(F)F)c3)nc3cc(C)ccc32)C1 (single isomer, unassigned) [Example 9-2A]
IC50 (EGFR (L858R)): 0.54 µM
IC50 (EGFR (WT)): > 10 µM
IC50 (EGFR(L858R/T790M) [1]): 0.032 µM

Compound: C=CC(=O)N[C@H]1CC[C@@H](n2c(NC(=O)c3cccc(C(F)(F)F)c3)nc3cc(C)ccc32)C1 (single isomer, unassigned) [Example 9-1A]
IC50 (EGFR(L858R/T790M) [2]; [3]): 0.08 µM
IC50 (EGFR(L858R/T790M) [2]; [4]): 0.75 µM

Compound: C=CC(=O)N[C@@H]1CC[C@H](n2c(NC(=O)c3cccc(C(F)(F)F)c3)nc3cc(C)ccc32)C1 (single isomer, unassigned) [Example 9-1B]
IC50 (EGFR(L858R/T790M) [2]; [3]): 0.15 µM
IC50 (EGFR(L858R/T790M) [2]; [4]): 0.29 µM

Compound: Cc1cc(C(=O)Nc2nc3cccc(Cl)c3n2-c2cc(NC(=O)/C=C/CN(C)C)ccc2C)ccn1 [Example 2-15, (E)-N-(7-chloro-1-(5-(4-(dimethylamino)but-2-enamido)-2-methylphenyl)-1H-benzo[d]imidazol-2-yl)-2-methylisonicotinamide]
IC50 (EGFR(L858R/T790M) [2]; [3]): 1.06 µM
IC50 (EGFR(L858R/T790M) [2]; [4]): 20 µM

Compound: C=CC(=O)Nc1ccc(C)c(-n2c(NC(=O)c3ccnc(C)c3)nc3cccc(Cl)c32)c1 [Example 2-16, N-(1-(5-acrylamido-2-methylphenyl)-7-chloro-1H-benzo[d]imidazol-2-yl)-2-methylisonicotinamide]
IC50 (EGFR(L858R/T790M) [2]; [3]): 1.07 µM
IC50 (EGFR(L858R/T790M) [2]; [4]): 9.38 µM

Compound: C=CC(=O)Nc1ccccc1-n1c(NC(=O)c2cccc(C(F)(F)F)c2)nc2cc(C)ccc21 [Example 2-12, N-{5-methyl-1-[2-(prop-2-enamido)phenyl]-1H-1,3-benzodiazol-2-yl}-3-(trifluoromethyl)benzamide]
IC50 (EGFR(L858R/T790M) [2]; [3]): 0.1 µM
IC50 (EGFR(L858R/T790M) [2]; [4]): 1.8 µM

Next, values leading:

IC50 (EGFR(L858R/T790M) [2]; [3]): 0.079 µM
IC50 (EGFR(L858R/T790M) [2]; [4]): > 50 µM
Compound: C=CC(=O)N[C@H]1CCCCC1n1c(NC(=O)c2cccc(C(F)(F)F)c2)nc2cc(C)ccc21 (stereo partly drawn) [Example 8-6, N-{5-methyl-1-[(1R,25)-2-(prop-2-enamido)cyclohexyl]-1H-1,3-benzodiazol-2-yl}-3-(trifluoromethyl)benzamide]

IC50 (EGFR (L858R)): 0.25 µM
IC50 (EGFR (WT)): > 10 µM
IC50 (EGFR(L858R/T790M) [1]): 0.026 µM
IC50 (EGFR(L858R/T790M) [2]; [3]): 0.003 µM
IC50 (EGFR(L858R/T790M) [2]; [4]): 0.072 µM
Compound: C=CC(=O)Nc1cccc(-n2c(NC(=O)c3cccc(C(F)(F)F)c3)nc3cc(CN4CCOCC4)ccc32)c1 [Example 5-3, N-[5-(morpholin-4-ylmethyl)-1-[3-(prop-2-enamido)phenyl]-1H-1,3-benzodiazol-2-yl]-3-(trifluoromethyl)benzamide]

IC50 (EGFR(L858R/T790M) [2]; [3]): 0.21 µM
IC50 (EGFR(L858R/T790M) [2]; [4]): 0.46 µM
Compound: C=CC(=O)N[C@H]1CC[C@@H](n2c(NC(=O)c3cccc(C(F)(F)F)c3)nc3cc(C)ccc32)CC1 [Example 8-8, N-{5-methyl-1-[(1S,4S)-4-(prop-2-enamido)cyclohexyl]-1H-1,3-benzodiazol-2-yl}-3-(trifluoromethyl)benzamide]

IC50 (EGFR (L858R)): 0.54 µM
IC50 (EGFR (WT)): > 10 µM
IC50 (EGFR(L858R/T790M) [1]): 0.041 µM
Compound: C=CC(=O)N[C@@H]1CCC[C@H](n2c(NC(=O)c3cccc(C(F)(F)F)c3)nc3cc(C)ccc32)C1 (racemic) [Example 8-1, N-{5-methyl-1-[(1S,3R)-3-(prop-2-enamido)cyclohexyl]-1H-1,3-benzodiazol-2-yl}-3-(trifluoromethyl)benzamide]

IC50 (EGFR(L858R/T790M) [2]; [3]): 0.82 µM
IC50 (EGFR(L858R/T790M) [2]; [4]): 2.64 µM
Compound: C=CC(=O)NCCn1c(NC(=O)c2cccc(C(F)(F)F)c2)nc2cc(C)ccc21 [Example 8-5, N-{5-methyl-1-[2-(prop-2-enamido)ethyl]-1H-1,3-benzodiazol-2-yl}-3-(trifluoromethyl)benzamide]

IC50 (EGFR(L858R/T790M) [2]; [3]): 0.57 µM
IC50 (EGFR(L858R/T790M) [2]; [4]): 0.22 µM
Compound: C=CC(=O)N[C@H]1CC[C@H](n2c(NC(=O)c3cccc(C(F)(F)F)c3)nc3cc(C)ccc32)CC1 [Example 8-9, N-{5-methyl-1-[(1R,4R)-4-(prop-2-enamido)cyclohexyl]-1H-1,3-benzodiazol-2-yl}-3-(trifluoromethyl)benzamide]

IC50 (EGFR(L858R/T790M) [2]; [3]): 0.15 µM
IC50 (EGFR(L858R/T790M) [2]; [4]): 0.72 µM
Compound: C=CC(=O)NC1CCC(n2c(NC(=O)c3cccc(C(F)(F)F)c3)nc3cc(C)ccc32)C1 (racemic) [Example 8-3, N-{5-methyl-1-[3-(prop-2-enamido)cyclopentyl]-1H-1,3-benzodiazol-2-yl}-3-(trifluoromethyl)benzamide]

IC50 (EGFR(L858R/T790M) [2]; [3]): 0.31 µM
IC50 (EGFR(L858R/T790M) [2]; [4]): 2.3 µM
Compound: C=CC(=O)N[C@@H]1CCCC[C@H]1n1c(NC(=O)c2cccc(C(F)(F)F)c2)nc2cc(C)ccc21 [Example 8-7, N-{5-methyl-1-[(1R,2R)-2-(prop-2-enamido)cyclohexyl]-1H-1,3-benzodiazol-2-yl}-3-(trifluoromethyl)benzamide]
